Key:
panel of trained testers = experiment: Taste profile of the pure substance in saline or sugar solution, tasting by a panel of trained testers; type: in vivo, human; conditions: for Taste profile: pure substance in saline or sugar solution; for Umami character: own tests, tasting
From the text: The ethyl ester (3) of a partially hydrogenated geranyl derivate has already been described in the literature (Maslozhirovaya Promyshlennost 1983, 4, 26-27). In the context of our own tests the corresponding methyl ester (4) during tasting by a panel of trained testers was described as very neutral; the corresponding methyl amine (5) was assigned fruity notes (see Table 2 contained within the examples of the present text). In the following, selected substances manufactured according to the general instructions described above are presented. In each case the taste profiles have been determined by determining the taste impression of the respective substance as a pure substance in saline or sugar solution and therefore deviate from the taste impressions (in beef extracts) shown in Table 1 and FIG. 1. The following structures are further examples from this substance class, prepared and tasted according to AAV 1 and AAV 2—on the basis of various alcohols and amines.

[1] = Sensory profile in American beef extract base (Table 1, FIG. 1); type: in vivo; set-up: scale not given here
From the text: This is also shown in Table 1 and the spider diagram in FIG. 1, in which an American beef extract as a base is compared with such a base plus the addition of 10 ppm of a compound (I) according to the invention and/or 10 ppm of a compound of formula (II) according to the invention and with such a base plus the addition of 0.05 weight % of MSG (monosodium glutamate).

[2] = tested on: panel of trained test persons; experiment: Application in green tea drink, tasting panel; type: in vivo, human; conditions: green tea drink with 0.008 weight % of a 1% solution in propylene glycol
Procedure: The green tea concentrate is mixed with a 1% solution of N-((E)-3,7-dimethyl-octa-2,6-dienyl)-oxalamide methyl ester (I) in propylene glycol. Then it is topped up with demineralized water and thoroughly mixed again. The product is then filtered, packaged ready for consumption and sterilized at 118° C.

[3] = beef extract + 0.05 weight % MSG

With CCNC(=O)C(=O)NC/C=C(\C)CCC=C(C)C [formula (7)] the Taste profile (panel of trained testers; listed as (7)) was “very neutral” and the Taste profile (panel of trained testers; listed as drawing 19) was “neutral”.
In the case of CC(C)=CCC/C(C)=C/CNC(=O)C(=O)NC/C=C(\C)CCC=C(C)C [formula (1), N,N′-Bis-((E)-3,7-dimethyl-octa-2,6-dienyl)-oxalamide], the Umami character (panel of trained testers) is reported as “did not demonstrate any umami character” and the Taste profile (panel of trained testers) is reported as “neutral, slightly hot”.
In the case of COC(=O)C(=O)NCCC(C)CCCC(C)C (stereo not shown), the Taste profile (panel of trained testers) is reported as “fatty, bitter, metallic”.
For N[C@@H](CCC(=O)O)C(=O)[O-].[Na+] [MSG, monosodium glutamate, reference compound], the “Baked, roasted” value [1, 3] was 5.00, the Bitter [1, 3] was 1.35 and the Meaty [1, 3] was 5.47. The Metallic [1, 3] was 3.47, the Mouth-watering [1, 3] was 4.53 and the Mouthfeel [1, 3] was 5.41. It also gave a Salty [1, 3] of 3.29, a Sour [1, 3] of 2.94 and a Sweet [1, 3] of 2.41. For the same compound, the “Tenacity, long-lasting” value [1, 3] was 5.06.
In the case of CC(C)=CCC/C(C)=C\CNC(=O)C(=O)NC/C=C(/C)CCC=C(C)C [formula (2), N,N′-Bis-((Z)-3,7-dimethyl-octa-2,6-dienyl)-oxalamide], the Umami character (panel of trained testers) is reported as “did not demonstrate any umami character” and the Taste profile (panel of trained testers) is reported as “neutral, slight burning”.
With COC(=O)C(=O)NC/C=C(/C)CCC=C(C)C [formula (III), N-((Z)-3,7-dimethyl-octa-2,6-dienyl)-oxalic acid amide-methyl-ester] the Umami character (panel of trained testers) was “do not in fact have any umami character” and the Taste profile (panel of trained testers) was “musty, bitter, long-lasting”.
In the case of CNC(=O)C(=O)NCCC(C)CCCC(C)C (stereo not shown), the Taste profile (panel of trained testers) is reported as “neutral”.
In the case of CNC(=O)C(=O)NCCC(C)CCC=C(C)C (stereo not shown) [formula (5)], the Taste profile (panel of trained testers; listed as (5)) is reported as “fruity notes” and the Taste profile (panel of trained testers; listed as drawing 24) is reported as “fruity”.
With CNC(=O)C(=O)OC/C=C(\C)CCC=C(C)C the Taste profile (panel of trained testers) was “soapy, flowery, per- fumey”.
For COC(=O)C(=O)NC/C=C(\C)CCC=C(C)C [formula (I), N-((E)-3,7-dimethyl-octa-2,6-dienyl)-oxalic acid amide-methyl-ester], the Umami character (panel of trained testers) was “clear umami taste”, the Taste profile (panel of trained testers) was “sweet, full, prickling, umami” and the “Taste compared with the unflavored green tea base” value [2] was “markedly preferable”. For the same compound, the “Baked, roasted” value ([1]; beef extract + 10 ppm compound) was 3.55, the Bitter ([1]; beef extract + 10 ppm compound) was 1.36 and the Meaty ([1]; beef extract + 10 ppm compound) was 4.55. It also gave a Metallic ([1]; beef extract + 10 ppm compound) of 3.82, a Mouth-watering ([1]; beef extract + 10 ppm compound) of 3.64 and a Mouthfeel ([1]; beef extract + 10 ppm compound) of 4.45. For the same compound, the Salty ([1]; beef extract + 10 ppm compound) was 2.64, the Sour ([1]; beef extract + 10 ppm compound) was 2.91 and the Sweet ([1]; beef extract + 10 ppm compound) was 1.36. For the same compound, the “Tenacity, long-lasting” value ([1]; beef extract + 10 ppm compound) was 3.73.
With CCOC(=O)C(=O)NC/C=C(\C)CCC=C(C)C [formula (6), N-((E)-3,7-dimethyl-octa-2,6-dienyl)-oxalic acid amide-ethyl-ester] the Taste profile (panel of trained testers) was “musty, herbaceous and chemical”.
For CNC(=O)C(=O)NC/C=C(/C)CCC=C(C)C [formula (IV), N-((Z)-3,7-dimethyl-octa-2,6-dienyl)-N′-methyl-oxalamide], the Umami character (panel of trained testers) was “do not in fact have any umami character” and the Taste profile (panel of trained testers) was “sour”.
With COC(=O)C(=O)NCCC(C)CCC=C(C)C (stereo not shown) [formula (4)] the Taste profile (panel of trained testers; listed as (4)) was “very neutral” and the Taste profile (panel of trained testers; listed as drawing 23) was “neutral”.
In the case of COC(=O)C(=O)NCC=C(C)C, the Taste profile (panel of trained testers) is reported as “taste of its own, sol- vent”.
For CNC(=O)C(=O)NC/C=C(\C)CCC=C(C)C [formula (II), N-((E)-3,7-dimethyl-octa-2,6-dienyl)-N′-methyl-oxalamide], the Umami character (panel of trained testers) was “clear umami taste”, the Taste profile (panel of trained testers) was “meaty, full, metallic, umami” and the “Baked, roasted” value ([1]; beef extract + 10 ppm compound) was 4.27. It also gave a Bitter ([1]; beef extract + 10 ppm compound) of 1.00, a Meaty ([1]; beef extract + 10 ppm compound) of 5.09 and a Metallic ([1]; beef extract + 10 ppm compound) of 3.55. The Mouth-watering ([1]; beef extract + 10 ppm compound) was 4.14, the Mouthfeel ([1]; beef extract + 10 ppm compound) was 4.73 and the Salty ([1]; beef extract + 10 ppm compound) was 2.82. The Sour ([1]; beef extract + 10 ppm compound) was 2.45, the Sweet ([1]; beef extract + 10 ppm compound) was 2.27 and the “Tenacity, long-lasting” value ([1]; beef extract + 10 ppm compound) was 4.64.
With CNC(=O)C(=O)NCC=C(C)C the Taste profile (panel of trained testers) was “neutral”.

Source: patent US8273398B2, “Geranylamine derivates of oxalic acid” (Symrise AG, priority 2008, dated 2012)
